The source made the active and inactive calls. No cut-off for these calls is given here.
Assays:
[1] = biological target: T1, 5-hydroxytryptamine receptor 1A (Homo sapiens, UniProt P08908); assay: Displacement of [125I]WAY100635 from human 5HT1A receptor expressed in CHO cells; type: cell-based
T1 sequence (P08908 whole entry): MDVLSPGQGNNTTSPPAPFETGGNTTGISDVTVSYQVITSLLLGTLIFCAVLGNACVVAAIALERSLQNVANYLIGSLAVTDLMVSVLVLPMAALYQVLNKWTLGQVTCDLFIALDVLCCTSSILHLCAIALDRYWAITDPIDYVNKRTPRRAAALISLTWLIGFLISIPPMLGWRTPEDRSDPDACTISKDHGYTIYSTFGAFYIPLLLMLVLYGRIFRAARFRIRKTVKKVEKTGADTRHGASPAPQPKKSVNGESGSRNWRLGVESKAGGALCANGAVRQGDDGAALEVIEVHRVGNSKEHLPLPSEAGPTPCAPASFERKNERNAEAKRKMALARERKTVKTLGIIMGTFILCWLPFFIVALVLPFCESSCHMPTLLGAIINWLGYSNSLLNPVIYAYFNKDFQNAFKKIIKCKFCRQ

[2] = biological target: T2, 5-hydroxytryptamine receptor 1D (Homo sapiens, UniProt P28221); assay: Displacement of 3H]5HT from human 5HT1D receptor expressed in CHO cells; type: cell-based
T2 sequence (P28221 whole entry): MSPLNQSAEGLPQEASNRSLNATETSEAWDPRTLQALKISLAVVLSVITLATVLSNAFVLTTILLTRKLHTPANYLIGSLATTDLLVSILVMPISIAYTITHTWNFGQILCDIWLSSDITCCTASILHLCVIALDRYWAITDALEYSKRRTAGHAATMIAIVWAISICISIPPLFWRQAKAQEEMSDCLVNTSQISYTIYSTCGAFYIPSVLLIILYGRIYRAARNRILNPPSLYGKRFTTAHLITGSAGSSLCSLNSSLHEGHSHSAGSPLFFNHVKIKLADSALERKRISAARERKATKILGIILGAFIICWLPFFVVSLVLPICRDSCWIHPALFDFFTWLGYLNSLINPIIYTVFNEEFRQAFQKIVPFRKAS

[3] = biological target: T3, 5-hydroxytryptamine receptor 1B (Homo sapiens, UniProt P28222); assay: Displacement of [3H]5HT from human 5HT1B receptor expressed in CHO cells; type: cell-based
T3 sequence (P28222 whole entry): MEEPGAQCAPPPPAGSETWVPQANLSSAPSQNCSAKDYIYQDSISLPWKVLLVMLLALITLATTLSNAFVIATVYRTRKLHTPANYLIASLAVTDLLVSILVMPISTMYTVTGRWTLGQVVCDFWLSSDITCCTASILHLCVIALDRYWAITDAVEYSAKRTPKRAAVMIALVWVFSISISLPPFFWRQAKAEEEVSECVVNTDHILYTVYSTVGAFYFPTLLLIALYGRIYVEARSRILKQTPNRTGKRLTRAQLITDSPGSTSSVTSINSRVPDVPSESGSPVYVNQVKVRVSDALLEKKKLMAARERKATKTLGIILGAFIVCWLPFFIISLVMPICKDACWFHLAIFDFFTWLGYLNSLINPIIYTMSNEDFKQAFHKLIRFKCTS

[4] = Clearance in rat blood at 1 mg/kg, iv; type: ADME, organism-based; set-up: dose 1 mg/kg, route intravenous
[5] = Cmax in rat brain at 3 mg/kg, po; type: ADME, organism-based; set-up: dose 3 mg/kg, route oral
[6] = biological target: T2, 5-hydroxytryptamine receptor 1D; assay: Intrinsic activity at human 5HT1D receptor expressed in CHO cells by [35S]GTPgammaS binding assay; type: functional, cell-based
[7] = biological target: T3, 5-hydroxytryptamine receptor 1B; assay: Intrinsic activity at human 5HT1B receptor expressed in CHO cells by [35S]GTPgammaS binding assay; type: functional, cell-based
[8] = Half life in rat at 1 mg/kg, iv; type: ADME, organism-based; set-up: dose 1 mg/kg, route intravenous; conditions: in vivo
[9] = Ratio of drug level in brain to blood in rat at 3 mg/kg, po; type: ADME, organism-based; set-up: dose 3 mg/kg, route oral; conditions: read-out: BBR
[10] = Volume of distribution at steady state rat; type: ADME, organism-based; conditions: in vivo, read-out: Vdss
[11] = Metabolic stability in rat microsomes assessed as intrinsic clearance; type: ADME, Microsome
[12] = Metabolic stability in human microsomes assessed as intrinsic clearance; type: ADME, Microsome
[13] = biological target: T4, 5-hydroxytryptamine receptor 1A (Homo sapiens) (UniProt P08908); assay: Inverse agonist activity at human 5HT1A receptor expressed in CHO cells; type: functional, cell-based
T4 sequence (whole entry): T1 sequence (P08908 whole entry)

[14] = biological target: T4, 5-hydroxytryptamine receptor 1A (Homo sapiens); assay: Intrinsic activity at human 5HT1A receptor expressed in CHO cells by [35S]GTPgammaS binding assay; type: functional, cell-based

Compound Cc1ccc2c(OCCN3CCC(Cc4cccc(-c5ccoc5)c4)CC3)cccc2n1 has a Ki [1] of 31.6 nM, a Ki [2] of 6.31 nM and a Ki [3] of 39.8 nM.

Cc1ccc2c(OCCN3CCC(Cc4cccc(C5CCNCC5)c4)CC3)cccc2n1 showed a Ki [1] of 6.31 nM, a Ki [2] of 1.26 nM and a Ki [3] of 6.31 nM.

In the case of Cc1ccc2c(OCCN3CCC(Cc4cccc(-c5ccncc5)c4)CC3)cccc2n1, the Ki [1] is reported as 7.94 nM, the Ki [2] is reported as 1 nM and the Ki [3] is reported as 7.94 nM.

For Cc1ccc2c(OCCN3CCC(Cc4cccc(C5CCN(S(C)(=O)=O)CC5)c4)CC3)cccc2n1, the Ki [1] was 7.94 nM, the Ki [2] was 3.16 nM and the Ki [3] was 79.4 nM.

With Cc1ccc2c(OCCN3CCC(Cc4cccc(C5CCN(C)CC5)c4)CC3)cccc2n1 the Ki [1] was 3.16 nM, the clearance [4] was 14 mL/min/kg and the Ki [2] was 0.2 nM. For the same compound, the Cmax [5] was 34 ng/g, the Intrinsic activity [6] was 0.4 and the Intrinsic activity [7] was 0.3. For the same compound, the half-life [8] was 12 h, the Kp [9] was 1.3 and the Vd [10] was 12.4 L/kg. The CLint scaled [11] was 2 mL/min/kg, the CLint scaled [12] was less than 0.5 mL/min/kg and the Activity [13] was “Active”. The Ki [3] was 5.01 nM.

Cc1ccc2c(OCCN3CCC(Cc4cccc(-c5ccccc5)c4)CC3)cccc2n1 showed a Ki [1] of 63.1 nM, a Ki [2] of 7.94 nM and a Ki [3] of 63.1 nM.

Work on CC(=O)N1CCC(c2cccc(CC3CCN(CCOc4cccc5nc(C)ccc45)CC3)c2)CC1 yielded a Ki [1] of 12.6 nM, a Ki [2] of 3.98 nM and a Ki [3] of 158 nM.

For Cc1ccc2c(OCCN3CCC(Cc4cccc(NC(=O)CN(C)C)c4)CC3)cccc2n1, the Intrinsic activity [6] was 0.4, the Intrinsic activity [7] was 0.2 and the Activity [13] was “Active”.

Cc1ccc2c(OCCN3CCC(Cc4cccc(NS(C)(=O)=O)c4)CC3)cccc2n1 showed an Intrinsic activity [14] of 0, an Intrinsic activity [6] of 0 and an Intrinsic activity [7] of 0.3.

Cc1ccc2c(OCCN3CCC(Cc4cccc(N5CCN(C)C(=O)C5)c4)CC3)cccc2n1 gave a Ki [1] of 7.94 nM, a Ki [2] of 10 nM and a Ki [3] of 126 nM.

Work on Cc1ccc2c(OCCN3CCC(Cc4cccc(N5CCN(C)CC5)c4)CC3)cccc2n1 yielded a Ki [1] of 1 nM, an Intrinsic activity [14] of 0 and a clearance [4] of 46 mL/min/kg. It also gave a Ki [2] of 0.501 nM, a Cmax [5] of 85 ng/g and an Intrinsic activity [6] of 0.4. For the same compound, the Intrinsic activity [7] was 0.3, the half-life [8] was 1.3 h and the Kp [9] was 18. For the same compound, the Vd [10] was 4.4 L/kg, the CLint scaled [11] was 2.9 mL/min/kg and the CLint scaled [12] was 1.6 mL/min/kg. The Ki [3] was 6.31 nM.

Cc1ccc2c(OCCN3CCC(Cc4cccc(N5CCCN(C)CC5)c4)CC3)cccc2n1 gave a Ki [1] of 2.51 nM, an Intrinsic activity [14] of 0 and a Ki [2] of 0.631 nM. It also gave an Intrinsic activity [6] of 0.5, an Intrinsic activity [7] of 0.3 and a CLint scaled [11] of 26 mL/min/kg. It also gave a Ki [3] of 7.94 nM.

Cc1ccc2c(OCCN3CCC(Cc4cccc(-c5cccnc5)c4)CC3)cccc2n1 showed a Ki [1] of 5.01 nM, a Ki [2] of 2 nM and a Ki [3] of 12.6 nM.

With Cc1ccc2c(OCCN3CCC(Cc4cccc(N5C[C@@H](C)N[C@@H](C)C5)c4)CC3)cccc2n1 the Ki [1] was 2 nM, the Intrinsic activity [14] was 0 and the Ki [2] was 0.794 nM. For the same compound, the Intrinsic activity [6] was 0.5, the Intrinsic activity [7] was 0.3 and the Ki [3] was 3.98 nM.

In the case of Cc1ccc2c(OCCN3CCC(Cc4cccc(N5CCOCC5)c4)CC3)cccc2n1, the Ki [1] is reported as 5.01 nM, the Intrinsic activity [14] is reported as 0 and the Ki [2] is reported as 2.51 nM. For the same compound, the Intrinsic activity [6] was 0.6, the Intrinsic activity [7] was 0.4 and the Ki [3] was 126 nM.

Cc1ccc2c(OCCN3CCC(Cc4cccc(N5CCCCC5)c4)CC3)cccc2n1 showed a Ki [1] of 3.98 nM, an Intrinsic activity [14] of 0 and a Ki [2] of 1 nM. The Intrinsic activity [6] was 0.7, the Intrinsic activity [7] was 0.6 and the CLint scaled [11] was 6.2 mL/min/kg. The Ki [3] was 2 nM.

Compound Cc1ccc2c(OCCN3CCC(Cc4cccc(N5CCCC5)c4)CC3)cccc2n1 has a Ki [1] of 10 nM, a Ki [2] of 2.51 nM and a Ki [3] of 39.8 nM.

In the case of Cc1ccc2c(OCCN3CCC(Cc4cccc(N5CCN(C)CC5=O)c4)CC3)cccc2n1, the Ki [1] is reported as 20 nM, the Ki [2] is reported as 3.98 nM and the Ki [3] is reported as 63.1 nM.

For Cc1ccc2c(OCCN3CCC(Cc4cccc(N5CCN[C@H](C)C5)c4)CC3)cccc2n1, the Ki [1] was 2.51 nM, the Intrinsic activity [14] was 0 and the Ki [2] was 0.631 nM. It also gave an Intrinsic activity [6] of 0.5, an Intrinsic activity [7] of 0.3 and a Ki [3] of 2 nM.

Compound Cc1ccc2c(OCCN3CCC(Cc4cccc(N5C[C@@H](C)O[C@@H](C)C5)c4)CC3)cccc2n1 has a Ki [1] of 2.51 nM, a Ki [2] of 1.58 nM and a Ki [3] of 158 nM.

With Cc1ccc2c(OCCN3CCC(Cc4cccc(N5C[C@@H](C)NC[C@@H]5C)c4)CC3)cccc2n1 the Ki [1] was 5.01 nM, the Ki [2] was 1 nM and the Ki [3] was 31.6 nM.

In the case of Cc1ccc2c(OCCN3CCC(Cc4cccc(N5CCN[C@@H](C)C5)c4)CC3)cccc2n1, the Ki [1] is reported as 3.98 nM, the Intrinsic activity [14] is reported as 0 and the Ki [2] is reported as 1 nM. It also gave an Intrinsic activity [6] of 0.5, an Intrinsic activity [7] of 0.3 and a Ki [3] of 15.8 nM.
